≈ marks a conversion by molar mass, not a printed value. Where “and” joins values, the source holds several entries; their conditions need not be identical. Identical values can stand only once. Residues, ends and D or L forms follow the SMILES beside them.
Tests used:
[1] = tested on: K. pneumoniae FADDI-KP032; format: cell-based, Klebsiella pneumoniae; details: FADDI-KP032
How it was run: (§1)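 MICs were determined by broth microdilution in cation-adjusted Mueller–Hinton broth (CaMHB), with clinical isolates tested alongside ATCC strains.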

[2] = tested on: K. pneumoniae FADDI-KP065; format: cell-based, Klebsiella pneumoniae; details: FADDI-KP065
How it was run: as §1

[3] = tested on: Swiss mice, kidney; assay: Nephrotoxicity in mice (kidney histopathology); format: in vivo, mouse; details: for Kidney histopathology (SQS Score): 72 mg/kg/d subcutaneously in six divided doses every 2 h, n = 3; for Kidney histopathology, mice with the SQS score: mouse, in vivo
How it was run: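 Female Swiss mice (7-week-old, 22–28 g) received lipopeptides in saline either s.c. at 12 mg/kg ×6 every 2 h (total 72 mg/kg, n = 3) or i.p. at 20 or 25 mg/kg ×6 every 2 h (total 120 mg/kg, n = 6; 150 mg/kg, n = 3). Right kidney collected 20 h after last dose, fixed in 10% buffered formalin (pH 7.4), histology scored blinded.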

[4] = tested on: Swiss mice; assay: Acute toxicity in mice (maximum tolerated dose, IV bolus); format: in vivo, mouse; details: replicates 1-4
Procedure: (§2) Lipopeptide solutions were prepared in 0.9% saline and stored at 4 °C before use. Swiss mice (female, 7-week-old, 22–28 g) were used in the study. A mouse was administered an intravenous bolus of the lipopeptide (mg/kg free base) through a lateral tail vein (≤0.1 mL). After the injection, the mouse was released back into the cage and monitored for clinical signs of toxicity from 0 to 24 h after injection as follows: every 10 min in the first 2 h, every half hour from 2 to 4 h, every hour from 4 to 12 h, and every 2 h from 12 to 24 h.

[5] = as above; format: in vivo, mouse; details: mouse, in vivo, iv, single IV bolus dose, replicates 1-4; read-out: MTD, single replicate
Procedure: as §2

[6] = tested on: A. baumannii FADDI-AB030; format: cell-based, Acinetobacter baumannii; details: FADDI-AB030
How it was run: as §1

[7] = tested on: A. baumannii ATCC 19606; format: cell-based, Acinetobacter baumannii; details: ATCC 19606
How it was run: (§3)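 Read-out is the minimum inhibitory concentration, obtained by serially diluting compound in cation-adjusted Mueller–Hinton medium and exposing each isolate in microdilution format.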

[8] = tested on: A. baumannii FADDI-AB034; format: cell-based, Acinetobacter baumannii; details: FADDI-AB034
How it was run: as §1

[9] = tested on: P. aeruginosa FADDI-PA038; format: cell-based, Pseudomonas aeruginosa; details: FADDI-PA038
How it was run: as §1

[10] = tested on: P. aeruginosa ATCC 27853; format: cell-based, Pseudomonas aeruginosa; details: ATCC 27853
How it was run: as §3

[11] = tested on: P. aeruginosa FADDI-PA025; format: cell-based, Pseudomonas aeruginosa; details: FADDI-PA025
How it was run: as §1

[12] = tested on: P. aeruginosa ATCC 27853; assay: Neutropenic mouse bloodstream infection model; format: in vivo; details: single IV dose 4 mg/kg; for Log10 CFU/mL blood at 4 h, Mean / Δlog10 CFU/mL blood (mean) / Log10 CFU/mL blood at 4 h, single mouse: 4 h; for Δlog10 CFU/mL blood (mean): treated minus control, mean of replicates; for Delta Log10 CFU/mL blood at 4 h, single mouse: treated mouse minus mean of vehicle mice
How it was run: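 Female Swiss mice made neutropenic with cyclophosphamide (150 mg/kg day −4, 100 mg/kg day −1), infected IV with 50 µL of 4 × 10^8 CFU/mL. Lipopeptide 4 mg/kg (free base) IV at 2 h post-inoculation, n = 3. Efficacy = Δlog10 CFU/mL blood versus saline at 4 h post-dose.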

[13] = tested on: human subjects; details: in vivo; cited from earlier work

Molecule | MIC K. pneumoniae FADDI-KP032 [1] | MIC K. pneumoniae FADDI-KP065 [2] | Kidney histopathology (SQS Score) [3] | Kidney histopathology, mice with the SQS score [3] | MTD, single replicate [4] | MTD [5] | MIC A. baumannii FADDI-AB030 [6] | MIC A. baumannii ATCC 19606 [7] | MIC A. baumannii FADDI-AB034 [8] | MIC P. aeruginosa FADDI-PA038 [9] | MIC P. aeruginosa ATCC 27853 [10] | MIC, No Survanta [10] | MIC P. aeruginosa FADDI-PA025 [11] | Log10 CFU/mL blood at 4 h, Mean [12] | Δlog10 CFU/mL blood (mean) [12] | Log10 CFU/mL blood at 4 h, single mouse ([12]; 4 mg/kg) | Delta Log10 CFU/mL blood at 4 h, single mouse ([12]; 4 mg/kg) | single dose at which neurotoxicity was observed [13] | Δlog10 CFU/mL blood (mean) ([12]; 4 mg/kg)
CCCCCC(=O)N[C@@H](CCN)C(=O)N[C@H](C(=O)N[C@@H](CN)C(=O)N[C@H]1CCNC(=O)[C@H]([C@@H](C)O)NC(=O)[C@H](CCN)NC(=O)[C@H](CCN)NC(=O)[C@H](CC)NC(=O)[C@@H](CC(C)C)NC(=O)[C@H](CCN)NC1=O)[C@@H](C)O [Lipopeptide F342] (HELM PEPTIDE1{[CCCCCC(=O)[*:2]].[Dab].T.[NC[C@H](N[*:1])C(=O)[*:2]].[Dab].[Dab].[dL].[Abu].[Dab].[Dab].T}$PEPTIDE1,PEPTIDE1,5:R3-11:R2$$$V2.0) | 0.25 mg/L (≈ 0.23 µM) | 0.5 mg/L (≈ 0.461 µM) | 0 (SQS 0 = no significant change (overall score, <1)) | 3/3 | 18.4 mg/kg | 20 mg/kg | 1 mg/L (≈ 0.921 µM) | 2 mg/L (≈ 1.84 µM) | 1 mg/L (≈ 0.921 µM) | 1 mg/L (≈ 0.921 µM) | 0.5 mg/L (≈ 0.461 µM) | 1 mg/L (≈ 0.921 µM) | 2 mg/L (≈ 1.84 µM) | 7.44 Log10 CFU/mL blood | 0.17 log10 CFU/mL blood | 7.29 Log10 CFU/mL blood and 7.60 Log10 CFU/mL blood | 0.0179 Log10 CFU/mL blood and 0.33 Log10 CFU/mL blood |  | 
SPR206 |  |  |  |  |  |  |  |  |  |  |  |  |  |  |  |  |  | exceeding 200 mg | 
CC[C@@H]1NC(=O)[C@@H](CC(C)C)NC(=O)[C@H](CCN)NC(=O)[C@@H](NC(=O)[C@H](CN)NC(=O)[C@@H](NC(=O)[C@H](CCN)NC(=O)c2cc(Cl)cc(Cl)c2)[C@@H](C)O)CCNC(=O)[C@H]([C@@H](C)O)NC(=O)[C@H](CCN)NC(=O)[C@H](CCN)NC1=O [Lipopeptide F381] (HELM PEPTIDE1{[O=C(c1cc(Cl)cc(Cl)c1)[*:2]].[Dab].T.[NC[C@H](N[*:1])C(=O)[*:2]].[Dab].[Dab].[dL].[Abu].[Dab].[Dab].T}$PEPTIDE1,PEPTIDE1,5:R3-11:R2$$$V2.0) | <0.125 mg/L | 0.5 mg/L (≈ 0.431 µM) | +1 (SQS + 1 = mild damage (overall score, 1 to <15)) | 1/3 | 4.7 mg/kg and 4 mg/kg | 5 mg/kg | 0.25 mg/L (≈ 0.215 µM) | 0.5 mg/L (≈ 0.431 µM) | 0.25 mg/L (≈ 0.215 µM) | 1 mg/L (≈ 0.862 µM) | 0.25 mg/L (≈ 0.215 µM) | 0.5 mg/L (≈ 0.431 µM) | 0.5 mg/L (≈ 0.431 µM) | 4.49 Log10 CFU/mL blood |  | 4.47 Log10 CFU/mL blood and 4.87 Log10 CFU/mL blood and 4.12 Log10 CFU/mL blood | -3.47 Log10 CFU/mL blood and -3.07 Log10 CFU/mL blood and -3.82 Log10 CFU/mL blood |  | −3.45 log10 CFU/mL blood
CC[C@@H]1NC(=O)[C@@H](CC(C)C)NC(=O)[C@H](CCN)NC(=O)[C@@H](NC(=O)[C@H](CN)NC(=O)[C@@H](NC(=O)[C@H](CCN)NC(=O)c2ccc(-c3ccccc3)cc2)[C@@H](C)O)CCNC(=O)[C@H]([C@@H](C)O)NC(=O)[C@H](CCN)NC(=O)[C@H](CCN)NC1=O [Lipopeptide F477] (HELM PEPTIDE1{[O=C(c1ccc(-c2ccccc2)cc1)[*:2]].[Dab].T.[NC[C@H](N[*:1])C(=O)[*:2]].[Dab].[Dab].[dL].[Abu].[Dab].[Dab].T}$PEPTIDE1,PEPTIDE1,5:R3-11:R2$$$V2.0) | 0.25 mg/L (≈ 0.214 µM) | 0.25 mg/L (≈ 0.214 µM) | +1 (SQS + 1 = mild damage (overall score, 1 to <15)) | 1/3 | 10.1 mg/kg and 11.1 mg/kg | 10 mg/kg | 0.5 mg/L (≈ 0.428 µM) | 1 mg/L (≈ 0.857 µM) | 0.25 mg/L (≈ 0.214 µM) | 1 mg/L (≈ 0.857 µM) | 1 mg/L (≈ 0.857 µM) | 1 mg/L (≈ 0.857 µM) | 1 mg/L (≈ 0.857 µM) | 3.39 Log10 CFU/mL blood |  | 3.09 Log10 CFU/mL blood and 3.94 Log10 CFU/mL blood and 3.15 Log10 CFU/mL blood | -4.19 Log10 CFU/mL blood and -3.34 Log10 CFU/mL blood and -4.13 Log10 CFU/mL blood |  | −3.89 log10 CFU/mL blood

From article PMC8956739, “A synthetic lipopeptide targeting top-priority multidrug-resistant Gram-negative pathogens” (Nature Communications, 2022)
